The values that follow come from ChEMBL document CHEMBL1154142, “Tyrosine derivatives isolated from Streptomyces sp. IFM 10937 in a screening program for TRAIL-resistance-overcoming activity” (2008).

SMILES strings stand for the structures. Active and inactive are the calls of the source. The calls are words filed in the database; no cut-off is given here.

What all share (format): functional
Assay [1] relates to AGS. Put plainly: Anticancer activity against TRAIL-resistant human AGS cells assessed as cell viability at 150 uM after 24 hrs by fluorometric microculture cytotoxicity assay in presence of 100 ng/ml TRAIL.
The test system of assay [2] is AGS. Description: Anticancer activity against TRAIL-resistant human AGS cells assessed as cell viability at 75 uM after 24 hrs by fluorometric microculture cytotoxicity assay in presence of 100 ng/ml TRAIL.
The test system of assay [3] is AGS. Description: Anticancer activity against TRAIL-resistant human AGS cells assessed as cell viability at 17.5 uM after 24 hrs by fluorometric microculture cytotoxicity assay in presence of 100 ng/ml TRAIL.
Assay [4] relates to AGS. Put plainly: Anticancer activity against TRAIL-resistant human AGS cells assessed as cell viability at 37.5 uM after 24 hrs by fluorometric microculture cytotoxicity assay in presence of 100 ng/ml TRAIL.

Consider `CC(C)=CCc1cc(C[C@H](N)C(=O)O)ccc1O`, for which the result with AGS [1] and in the assay with AGS [2] was inactive.

As to `O=c1cc(-c2ccc(O)c(O)c2)oc2cc(O)cc(O)c12` [LUTEOLIN], the Activity with AGS [3] is 70%.

Regarding `CC(=O)N[C@@H](Cc1ccc(O)c(CC=C(C)C)c1)C(=O)O`, the Activity in the assay with AGS [1] is 67%; in the assay on AGS [2] it was 77%.

As to `CO[C@@H]1[C@@H](OC(N)=O)[C@@H](O)[C@H](Oc2ccc3c(O)c(NC(=O)c4ccc(O)c(CC=C(C)C)c4)c(=O)oc3c2C)OC1(C)C` [NOVOBIOCIN], the Activity in the assay with AGS [2] was found to be 63%; in the assay with AGS [4], 72%.
